We go through 1 compound from patent US12291522B2, “Galectin-3 inhibitors” (BRISTOL-MYERS SQUIBB COMPANY, priority 2020, dated 2025).

Read-outs that look alike come from different tables or passages of the source.

The target of experiment [1] is His-tagged recombinant human Gal-3 (hGal-3) (Homo sapiens, UniProt P17931). As to the kind of experiment: Gal-3 HTRF assay (His-tagged hGal-3 / B-ASF). The experiment is classed as binding. The settings on record: 15 nM hGal-3, 15 nM B-ASF. For orientation: In TR-FRET formats the signal depends on donor and acceptor labels being close together.
Sequence of His-tagged recombinant human Gal-3 (hGal-3) (P17931 whole entry, the tested form may be a part): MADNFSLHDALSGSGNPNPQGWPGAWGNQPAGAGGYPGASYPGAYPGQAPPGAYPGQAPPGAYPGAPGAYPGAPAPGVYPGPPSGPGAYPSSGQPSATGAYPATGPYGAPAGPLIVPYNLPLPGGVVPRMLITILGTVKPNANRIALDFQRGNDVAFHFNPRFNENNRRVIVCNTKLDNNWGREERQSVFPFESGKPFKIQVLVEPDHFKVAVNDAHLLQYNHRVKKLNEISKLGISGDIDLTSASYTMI
In experiment [2] the target is T1, hCRBN (NanoLuc-CRBN fusion construct in HEK-293 cells) (Homo sapiens, UniProt Q96SW2).
T1 construct: expressed in transfected cells; host or cells: HEK-293
T1 sequence (Q96SW2 whole entry, the tested form may be a part): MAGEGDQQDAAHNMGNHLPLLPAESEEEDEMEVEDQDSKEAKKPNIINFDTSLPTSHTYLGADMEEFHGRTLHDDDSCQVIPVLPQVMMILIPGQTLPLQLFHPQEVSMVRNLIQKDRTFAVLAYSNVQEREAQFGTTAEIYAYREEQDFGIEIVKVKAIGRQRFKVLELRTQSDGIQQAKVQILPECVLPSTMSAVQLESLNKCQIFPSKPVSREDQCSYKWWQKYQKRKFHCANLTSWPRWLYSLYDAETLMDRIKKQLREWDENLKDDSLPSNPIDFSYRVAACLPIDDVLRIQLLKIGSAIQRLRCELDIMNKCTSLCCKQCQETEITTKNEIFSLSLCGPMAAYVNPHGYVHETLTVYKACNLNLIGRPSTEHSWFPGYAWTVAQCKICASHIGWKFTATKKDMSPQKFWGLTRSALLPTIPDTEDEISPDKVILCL
As to the kind of experiment: CRBN BRET Target Engagement. The class given is cell-based. The conditions noted are these: NanoLuc-CRBN transfected HEK-293 cells, BRET with CRBN Probe. For orientation: Bioluminescence resonance energy transfer reports proximity on the nanometre scale.

Experiment [3] deals with T2, Gal3 (Human Galectin-3) in THP-1 cells (Homo sapiens, UniProt P17931).
T2 construct: host or cells: THP-1
T2 sequence (P17931 whole entry): as the sequence (P17931 whole entry, the tested form may be a part) above
The experiment is described as follows: ELISA Gal3 Degradation Assay in THP-1 Cells. The experiment is classed as cell-based. The conditions noted are these: 48 hours, culture media Gal3 by ELISA. (In general: An ELISA detects its analyte on a solid surface through an enzyme-linked reagent.)

Broadly, the IC50 is the midpoint of a concentration-inhibition curve. As for `Cc1nc([C@@H]2O[C@H](CO)[C@H](O)[C@H](n3cc(-c4cc(F)c(Cl)c(F)c4)nn3)[C@H]2OCC(=O)N2CC3(CC(Oc4ccc(C(=O)Nc5ccc6c(c5)CN(C5CCC(=O)NC5=O)C6=O)cc4)C3)C2)n(-c2cc(Cl)ccc2C(F)(F)F)n1` (stereo partly shown) [Example 34], the IC50 in experiment [1] stood at 110 nM; in experiment [2], 1020 nM; in experiment [3] (test 1, read-out: Supernatant (IC50) test 1), 4580 nM; in experiment [3] (test 2, read-out: Supernatant (IC50) test 2), 210 nM.
